Test results published in ChEMBL document CHEMBL1201862, “PubChem BioAssay data set” (2004).
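Tested at 5 concentrations; 48 h exposure; 96-well plates; endpoints linearly interpolated, else capped at highest concentration. At the GI50, growth is halved.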 Activity calls are given as the source filed them. No stated cut-off is given here; in the data, active = GI50 up to about 1.1 µM and inactive = higher.

Experiments:
Experiment in all cases: growth of human tumour cells (NCI), 48 h
[1] = system: OVCAR-8
[2] = system: IGROV-1
[3] = system: NCI-H23
[4] = system: SNB-19
[5] = system: SF-268
[6] = system: OVCAR-3
[7] = system: NCI/ADR-RES
[8] = system: CCRF-CEM
[9] = system: HL-60
[10] = system: SK-MEL-5
[11] = system: RPMI-8226
[12] = system: 786-0
[13] = system: SN12C
[14] = system: HOP-62
[15] = system: UACC-62
[16] = system: Malme-3M
[17] = system: K562
[18] = system: SNB-75
[19] = system: RXF 393
[20] = system: SR

Row | SMILES | GI50 [1] | GI50 [2] | GI50 [3] | GI50 [4] | GI50 [5] | GI50 [6] | GI50 [7] | GI50 [8] | GI50 [9] | GI50 [10] | GI50 [11] | GI50 [12] | GI50 [13] | GI50 [14] | GI50 [15] | GI50 [16] | GI50 [17] | GI50 [18] | GI50 [19] | GI50 [20]
1 | CCC1C(C#N)=C(N)OC2=C1C(=O)CC(C)(C)C2 (configuration not stated) | > 100 µM (inactive) | > 100 µM (inactive) | > 100 µM (inactive) | > 100 µM (inactive) | > 100 µM (inactive) | > 100 µM (inactive) | > 100 µM (inactive) | > 100 µM (inactive) | > 100 µM (inactive) | > 100 µM (inactive) | > 100 µM (inactive) | > 100 µM (inactive) | > 100 µM (inactive) | > 100 µM (inactive) | > 100 µM (inactive) | > 100 µM (inactive) |  |  |  | 
2 | CCCCCCCCCCCC(=O)c1c(O)cccc1O | 17.9 µM (inactive) | 18.1 µM (inactive) | 17.6 µM (inactive) | 16.5 µM (inactive) | 16.3 µM (inactive) | 17.5 µM (inactive) |  | 24.5 µM (inactive) | 19.9 µM (inactive) | 13.6 µM (inactive) | 26.7 µM (inactive) | 18.1 µM (inactive) | 19 µM (inactive) | 17.6 µM (inactive) | 19.6 µM (inactive) | 14.6 µM (inactive) | 31.9 µM (inactive) | 16.8 µM (inactive) | 24.4 µM (inactive) | 21 µM (inactive)
3 | Cc1c(C(=O)Nc2ccc(Cl)c(C(F)(F)F)c2)oc2cc(O)ccc2/c1=N\NC(N)=S | > 100 µM (inactive) | > 100 µM (inactive) | > 100 µM (inactive) | > 100 µM (inactive) | > 100 µM (inactive) | > 100 µM (inactive) |  | > 100 µM (inactive) | > 100 µM (inactive) | > 100 µM (inactive) | > 100 µM (inactive) | > 100 µM (inactive) | > 100 µM (inactive) | > 100 µM (inactive) | > 100 µM (inactive) | > 100 µM (inactive) | > 100 µM (inactive) | > 100 µM (inactive) | > 100 µM (inactive) | > 100 µM (inactive)
4 | O=c1oc2ccccc2cc1-c1cc2ccccn2c1 | > 100 µM (inactive) | > 100 µM (inactive) | > 100 µM (inactive) | > 100 µM (inactive) | > 100 µM (inactive) | > 100 µM (inactive) | > 100 µM (inactive) | > 100 µM (inactive) | > 100 µM (inactive) | > 100 µM (inactive) | > 100 µM (inactive) | > 100 µM (inactive) |  | > 100 µM (inactive) | > 100 µM (inactive) |  | > 100 µM (inactive) | > 100 µM (inactive) | > 100 µM (inactive) | 
5 | Oc1cc2cc(-c3ccccc3)[nH]c2c2ccccc12 | 32.7 µM (inactive) | 35.6 µM (inactive) | 15 µM (inactive) | 21.7 µM (inactive) | 47.1 µM (inactive) | 16.3 µM (inactive) |  | 28.6 µM (inactive) | 8.15 µM (inactive) | 14.1 µM (inactive) | 16.6 µM (inactive) | > 59 µM (inactive) | 28.8 µM (inactive) | > 85.9 µM (inactive) | 15.2 µM (inactive) | 19.9 µM (inactive) | 26.7 µM (inactive) | 33 µM (inactive) | 27.8 µM (inactive) | > 57 µM (inactive)
6 | COc1cc(/C=N\c2ccc(C(C)C)cc2)cc(OC)c1OC | > 100 µM (inactive) | > 100 µM (inactive) | > 100 µM (inactive) | > 100 µM (inactive) | > 100 µM (inactive) | > 100 µM (inactive) |  | > 66.8 µM (inactive) | > 40.9 µM (inactive) | > 78 µM (inactive) | > 42 µM (inactive) | > 100 µM (inactive) | > 100 µM (inactive) | > 100 µM (inactive) | > 100 µM (inactive) | > 100 µM (inactive) | > 50.4 µM (inactive) | 98.4 µM (inactive) | > 100 µM (inactive) | 54.3 µM (inactive)
7 | O=C1CCC(=O)N1CNc1ccc2c(c1)Sc1ccccc1O2 | 25.9 µM (inactive) | 38.9 µM (inactive) | 38.5 µM (inactive) | 67.3 µM (inactive) | 44.8 µM (inactive) | 26.5 µM (inactive) | 42.9 µM (inactive) | 29 µM (inactive) | 4.99 µM (inactive) | 26.4 µM (inactive) | 33.9 µM (inactive) | 23.6 µM (inactive) | 27.6 µM (inactive) | 43.7 µM (inactive) | 48.9 µM (inactive) | 58.6 µM (inactive) | 49.8 µM (inactive) |  | 22.5 µM (inactive) | 
8 | CCOC(=O)C1=C(C)NC(=O)NC1c1ccc(OC)cc1OC (configuration not stated) | > 100 µM (inactive) | > 100 µM (inactive) | > 100 µM (inactive) | > 100 µM (inactive) | > 100 µM (inactive) | > 100 µM (inactive) |  | 84.5 µM (inactive) | > 100 µM (inactive) | > 100 µM (inactive) | 79.1 µM (inactive) | > 100 µM (inactive) | > 100 µM (inactive) | > 100 µM (inactive) | > 100 µM (inactive) | > 100 µM (inactive) | > 100 µM (inactive) | > 100 µM (inactive) | 72.6 µM (inactive) | > 100 µM (inactive)
9 | COc1cc(/C=C2\CCC(C)C3C2=NN(C(C)=O)C3c2cc(OC)c(OC)c(OC)c2)cc(OC)c1OC (configuration not stated) | > 100 µM (inactive) | 3.13 µM (inactive) | > 100 µM (inactive) | > 100 µM (inactive) | > 85.1 µM (inactive) | > 100 µM (inactive) |  | > 100 µM (inactive) | > 91.6 µM (inactive) | > 57 µM (inactive) | 36.7 µM (inactive) | > 79.6 µM (inactive) | > 100 µM (inactive) | > 59.2 µM (inactive) | 38.8 µM (inactive) | 43.6 µM (inactive) | > 100 µM (inactive) | 15.8 µM (inactive) | 43.5 µM (inactive) | > 52.6 µM (inactive)
10 | COc1cc(NS(=O)(=O)c2ccc(C)cc2)c2nccnc2c1 | 26.7 µM (inactive) | 36.9 µM (inactive) | 34.4 µM (inactive) | 29.8 µM (inactive) | 24.7 µM (inactive) | 32.4 µM (inactive) |  | 10.3 µM (inactive) | 13 µM (inactive) | 23.7 µM (inactive) | 25.5 µM (inactive) | 36.1 µM (inactive) | 39.3 µM (inactive) | 33.2 µM (inactive) | 14.8 µM (inactive) | 37.2 µM (inactive) | 20.4 µM (inactive) | 24.3 µM (inactive) | 14.3 µM (inactive) | 16.7 µM (inactive)
11 | Brc1cccc(C2SCc3nc4ccccc4n32)c1 (configuration not stated) | 22.5 µM (inactive) | 21.7 µM (inactive) | 13.9 µM (inactive) |  | 33.5 µM (inactive) | 15.2 µM (inactive) |  | 26.2 µM (inactive) | 7.94 µM (inactive) | 6.4 µM (inactive) | 12.5 µM (inactive) | 17.5 µM (inactive) | 13.8 µM (inactive) | 15.3 µM (inactive) | 12.9 µM (inactive) | 24 µM (inactive) | 9.98 µM (inactive) | 0.0533 µM (active) | 5.93 µM (inactive) | 15.7 µM (inactive)
12 | N=C(N)N/N=C/c1c[nH]c2ccccc12 | > 100 µM (inactive) | > 100 µM (inactive) | > 100 µM (inactive) | > 100 µM (inactive) | > 100 µM (inactive) | > 100 µM (inactive) |  | > 100 µM (inactive) | > 100 µM (inactive) | > 100 µM (inactive) | > 100 µM (inactive) | > 100 µM (inactive) | > 100 µM (inactive) | > 100 µM (inactive) | > 100 µM (inactive) | > 100 µM (inactive) | > 100 µM (inactive) | > 100 µM (inactive) | > 100 µM (inactive) | > 100 µM (inactive)
13 | CNCCCNc1c2ccccc2nc2cccc([N+](=O)[O-])c12 | 0.00372 µM (active) | 0.00726 µM (active) | 0.00193 µM (active) | 0.00769 µM (active) | 0.00225 µM (active) | 0.00449 µM (active) | 0.00861 µM (active) | 0.00986 µM (active) | 0.01 µM (active) | 0.00507 µM (active) | 0.00348 µM (active) | 0.00323 µM (active) | 0.00561 µM (active) | 0.00373 µM (active) | 0.00468 µM (active) | 0.0043 µM (active) | 0.00407 µM (active) | 0.00438 µM (active) | 0.000346 µM (active) | 
14 | CCCCc1c(C(=O)OC(C)(C)C)cc(C#Cc2cc(C(=O)OC(C)(C)C)c(CCCC)c(C(=O)OC(C)(C)C)c2)cc1C(=O)OC(C)(C)C |  | > 100 µM (inactive) | > 100 µM (inactive) | > 100 µM (inactive) | > 100 µM (inactive) | > 100 µM (inactive) | > 100 µM (inactive) |  |  | > 100 µM (inactive) | > 100 µM (inactive) | > 100 µM (inactive) | > 100 µM (inactive) | > 100 µM (inactive) | > 100 µM (inactive) | > 100 µM (inactive) |  | > 100 µM (inactive) |  | 
15 | O=C(/C=C/c1ccc[nH]1)c1ccccc1 | > 100 µM (inactive) |  | > 100 µM (inactive) | > 100 µM (inactive) | > 100 µM (inactive) | > 100 µM (inactive) |  | > 100 µM (inactive) | 41.2 µM (inactive) | > 100 µM (inactive) | 95.9 µM (inactive) | > 100 µM (inactive) | > 100 µM (inactive) | > 100 µM (inactive) | > 100 µM (inactive) | > 100 µM (inactive) | > 100 µM (inactive) | 29.6 µM (inactive) | > 100 µM (inactive) | > 100 µM (inactive)
